Results published in article PMC7367369, “A small library of chalcones induce liver cancer cell death through Akt phosphorylation inhibition” (Scientific Reports, 2020).
Where a name gives a salt, the structure may show the parent alone. Read-outs that look alike come from different tables or passages of the source.

Legend:
Format in all cases: cell-based, human
[1] = test system: FOCUS; experiment: NCI-60 sulforhodamine B (SRB) cytotoxicity assay, FOCUS; details: 72 h, read-out: IC50 FOCUS
Experimental: (§1) The bioactivities of the synthesized chalcones were assessed on human liver cancer cell lines and on DPSCs with NCI-SRB assay in vitro. DPSCs used to asses the bioactivity of chalcones on untransformed control cells with the potential of hepatic lineage. […] We also included 5-Fluorouracil which is used in clinics for gastrointestinal cancers and Sorafenib. All results were normalized to DMSO negative control measurements. The experiment was performed in triplicate.
(§2) Well differentiated human primary liver cancer cell lines Huh7, HepG2 and Hep3B, and poorly differentiated Mahlavu, FOCUS and SNU475 HCC cells were cultured in Dulbecco’s Modified Eagle’s Standard (DMEM) medium supplemented with 10% Fetal Bovine Serum (FBS), 100 units/mL penicillin and 100 µg/mL streptomycin (Gibco, Invitrogen, Carlsbad, CA, USA). 0.1 mM nonessential amino acids (NEAA) which are specific to HCC cell lines also added to culture media. Cells were cultured in a 5% CO2 incubator at 37^∘C
(§3) Primary liver cancer cells Huh7, HepG2, Hep3B, Mahlavu, FOCUS, Snu475 along with hepatic progenitor Dental pulp stem cells were seeded into 96-well plates (1,000–3,000 HCC cell/well and 10,000 cells DPSC/well ) for 24 h. The cells were then treated with increasing concentrations of the chalcones ( 2.5-40μM ). DMSO (AppliChem Biochemica, Darmstadt, Germany) was used as negative control. The growth has stopped at the end of 72 h by fixing cold with 10% (v/v) trichloroacetic acid (Merck, Schuchardt, Germany). Cells were then stained with 0.4% (m/v) of sulforhodamine (Sigma-Aldrich, St. Louis, USA) in 1% acetic acid solution. […] All experiments were done in triplicate.

[2] = test system: Huh7; experiment: NCI-60 sulforhodamine B (SRB) cytotoxicity assay, Huh7; details: read-out: IC50 Huh7
Experimental: as §1, §2
Primary liver cancer cells Huh7, HepG2, Hep3B, Mahlavu, FOCUS, Snu475 along with hepatic progenitor Dental pulp stem cells were seeded into 96-well plates (1,000–3,000 HCC cell/well and 10,000 cells DPSC/well ) for 24 h. The cells were then treated with increasing concentrations of the chalcones ( 2.5-40μM ). DMSO (AppliChem Biochemica, Darmstadt, Germany) was used as negative control. The growth has stopped at the end of 72 h by fixing cold with 10% (v/v) trichloroacetic acid (Merck, Schuchardt, Germany). Cells were then stained with 0.4% (m/v) of sulforhodamine (Sigma-Aldrich, St. Louis, USA) in 1% acetic acid solution. The absorbency values were acquired at 515 nm. All experiments were done in triplicate.

[3] = test system: Mahlavu; experiment: NCI-60 sulforhodamine B (SRB) cytotoxicity assay, Mahlavu; details: 72 h, read-out: IC50 Mahlavu
Experimental: as §1, §2, §3

[4] = test system: SNU475; experiment: NCI-60 sulforhodamine B (SRB) cytotoxicity assay, SNU475; details: read-out: IC50 SNU475
Experimental: as §1, §2, §3

[5] = test system: dental pulp stem cells (DPSC); experiment: NCI-60 sulforhodamine B (SRB) cytotoxicity assay, dental pulp stem cells; details: 72 h, read-out: IC50 DPSC
Experimental: as §1
Dental pulp stem cells (DPSCs) were isolated from anonymised unidentified healthy intact wisdom tooth. DPSCs were isolated within few hours upon wisdom teeth surgery from patients above 18 years old. All were informed about the procedures, and their consents were obtained. Teeth were broken carefully in order to reach the dental pulp area. […] Then, the cells were seeded onto flasks in 10ml DMEM-F12 media (Lonza) supplemented with 1% penicillin/streptomycin solution (Hyclone) and 15% FBS (Fetal Bovine Serum,Hyclone, Logan, UT, USA) and cultured in a 5% CO2 incubator at 37^∘C .
as §3

[6] = test system: HepG2; experiment: NCI-60 sulforhodamine B (SRB) cytotoxicity assay, HepG2; details: read-out: IC50 HepG2
Experimental: as §1, §2, §3

[7] = test system: Hep3B; experiment: NCI-60 sulforhodamine B (SRB) cytotoxicity assay, Hep3B; details: 72 h, read-out: IC50 Hep3B
Experimental: as §1, §2, §3

[8] = SRB, 72 h, 2.5–40 μM, triplicate
[9] = Homo sapiens, Mahlavu, SRB, 2.5–40 μM, triplicate
[10] = Homo sapiens, SNU-475, SRB, 72 h, 2.5–40 μM, triplicate
[11] = Homo sapiens, SRB, 2.5–40 μM, triplicate, untransformed control cells
[12] = Homo sapiens, HepG2, SRB, 72 h, 2.5–40 μM, triplicate
[13] = Homo sapiens, SRB, 2.5–40 μM, triplicate
[14] = Homo sapiens, Huh-7, SRB, 72 h, 2.5–40 μM, triplicate
[15] = Homo sapiens, Hep3B, SRB, 2.5–40 μM, triplicate

Row | Structure (SMILES) | IC50 [3, 9] [µM] | IC50 [4, 10] [µM] | IC50 [5, 11] [µM] | IC50 [6, 12] [µM] | IC50 [1, 13] [µM] | IC50 [2, 14] [µM] | IC50 [7, 15] [µM] | other results
1 | COc1ccc(/C=C/C(=O)c2ccccc2)cc1 [compound 6] |  |  |  |  |  |  |  | IC50 ([1]; Homo sapiens): 6.5 µM; IC50 ([2]; Homo sapiens, Huh-7, 72 h): 6.4 µM; IC50 ([3]; Homo sapiens, Mahlavu): 6.3 µM; IC50 ([4]; Homo sapiens, SNU-475, 72 h): 10 µM; IC50 ([5]; Homo sapiens): > 40 µM; IC50 ([6]; Homo sapiens, HepG2, 72 h): 7.6 µM; IC50 ([7]; Homo sapiens, Hep3B): 7.8 µM
2 | Oc1cc(O)c2c(c1)O[C@H](c1ccc(O)c(O)c1)[C@@H](O)C2 [Catechin hydrate, reference compound] |  |  |  |  |  |  |  | IC50 ([1]; SRB, 2.5–40 μM, triplicate): > 40 µM; IC50 [2, 8]: > 40 µM; IC50 ([3]; SRB, 2.5–40 μM, triplicate): > 40 µM; IC50 [4, 8]: > 40 µM; IC50 ([5]; SRB, 2.5–40 μM, triplicate, untransformed control cells): > 40 µM; IC50 [6, 8]: > 40 µM; IC50 ([7]; SRB, 2.5–40 μM, triplicate): > 40 µM
3 | CNC(=O)c1cc(Oc2ccc(NC(=O)Nc3ccc(Cl)c(C(F)(F)F)c3)cc2)ccn1 [Sorafenib, reference compound] | 7.9 | 7.5 | 7.1 | 5.6 |  |  |  | IC50 ([2]; Homo sapiens, Huh-7, 72 h): 1.3 µM
4 | COc1ccc(C(=O)/C=C/c2ccccc2)cc1 [compound 3] | 9.4 | 13.1 | > 40 | 7.6 | 20 | 6.4 | 18 | 
5 | COc1ccc(Cc2nccc3cc(OC)c(OC)cc23)cc1OC [Papaverine hydrochloride, reference compound] | > 40 | 17.8 | > 40 | 4.9 | 1.7 |  | 20.4 | IC50 ([2]; Homo sapiens, Huh-7, 72 h): 8.5 µM
6 | COc1ccc(/C=C/C(=O)c2ccc(OC)cc2)cc1 [compound 8] | 17.3 | 21.6 | > 40 | 26 | 21.5 | 17.9 | 22.1 | 
7 | COc1ccc(C(=O)/C=C/c2ccc(Cl)cc2)cc1 [compound 10] | 14.6 | 20 | > 40 | 13.9 | 15.9 | 11.9 | 16.5 | 
8 | COc1ccc(/C=C/C(=O)c2cccc([N+](=O)[O-])c2)cc1 [compound 7] | 31.1 | > 40 | > 40 | > 40 | > 40 | > 40 | > 40 | 
9 | O=c1[nH]cc(F)c(=O)[nH]1 [5-Fluorouracil, reference compound] | 10 |  | 23.7 | 5 | 7.7 | 30.7 | 15.2 | 
10 | O=C(/C=C/c1cccc([N+](=O)[O-])c1)c1ccccc1 [compound 4] | 24.8 | 23.8 | > 40 | > 40 | > 40 | > 40 | > 40 | 
11 | O=c1c(O)c(-c2ccc(O)c(O)c2)oc2cc(O)cc(O)c12 [Quercetin, reference compound] | 11.3 | 11.6 | 21.2 | 8.4 | 17.9 | 12.5 | 21.8 | 
